# Test results: patent US10144738B2, “Pyrazolo[1,5-A]PYRAZIN-4-YL derivatives” (Pfizer Inc., priority 2016, dated 2018)
# Key:
# Type in all cases: biochemical
# Conditions in all cases: recombinant human kinase domain, Caliper mobility shift
# TYK2 = TYK2 (Homo sapiens (Human), UniProt P29597); test: JAK Caliper enzyme assay at 1 mM ATP (TYK2)
# Method: (§1) Compounds of the invention were evaluated by in vitro methods to determine their respective ability to inhibit the JAK kinases (TYK2, JAK1, JAK2, JAK3).
# (§2) The human JAK inhibitory activity was determined by using a microfluidic assay to monitor phosphorylation of a synthetic peptide by the recombinant human kinase domain of each of the four members of the JAK family, JAK1, JAK2, JAK3 and TYK2. […] Each assay condition was optimized for enzyme concentration and room temperature incubation time to obtain a conversion rate of 20% to 30% phosphorylated peptide product. Reactions were terminated by the addition of stop buffer containing EDTA. Utilizing the LabChip 3000 mobility shift technology (Caliper Life Science), each assay reaction was sampled to determine the level of phosphorylation. This technology is separation-based, allowing direct detection of fluorescently labeled substrates and products. Separations are controlled by a combination of vacuum pressure and electric field strength optimized for each peptide substrate.
# (§3) JAK Caliper Enzyme Assay at 1 mM ATP
# (§4) Compounds were added to a 384-well plate. Reaction mixtures contained 10 mM HEPES, pH 7.4, 10 mM MgCl2, 0.01% BSA, 0.0005% Tween 20, 1 mM ATP and 1 μM peptide substrate. […] The assays were initiated by the addition of 20 nM JAK1, 1 nM JAK2, 1 nM JAK or 1 nM TYK2 enzyme and were incubated at room temperature for three hours for JAK1, 60 minutes for JAK2, 75 minutes for JAK3 or 135 minutes for TYK2. Enzyme concentrations and incubation times were optimized for each new enzyme preps and were modified slightly over time to ensure 20% to 30% phosphorylation. The assays were stopped with 15 μL of 180 mM HEPES, pH 7.4, 20 mM EDTA, and 0.2% Coating Reagent 3. The assay plates were placed on a Caliper Life Science LC3000 instrument, and each well was sampled using appropriate separation conditions to measure the unphosphorylated and phosphorylated peptide.
# (§5) The data was collected using the HTS Well Analyzer software from Caliper Life Sciences. The data output for data analysis is the percent product converted calculated on peak height (Equation 1). % product converted=100*((product)/(product+substrate)) Equation 1: […]
# (§6) The percent effect at each compound concentration was calculated based on the positive and negative control well contained within each assay plate (Equation 2). […] The negative control wells contained DMSO alone (at the same concentration as the compound wells) that was used to set the baseline activity in the assay (i.e., uninhibited JAK1, JAK2, JAK3 or TYK2). % effect=100*((sample well−negative control)/(positive control-negative control)) Equation 2: The percent effect was plotted against the compound concentration compound.
# JAK2 = JAK2 (Homo sapiens (Human), UniProt O60674); test: JAK Caliper enzyme assay at 1 mM ATP (JAK2)
# Method: as §1, §2, §3, §4, §5, §6
# JAK3 = JAK3 (Homo sapiens (Human), UniProt P52333); test: JAK Caliper enzyme assay at 1 mM ATP (JAK3)
# Method: as §1, §2, §3, §4, §5, §6
# JAK1 = JAK1 (Homo sapiens (Human), UniProt P23458); test: JAK Caliper enzyme assay at 1 mM ATP (JAK1)
# Method: Compounds of the invention were evaluated by in vitro methods to determine their respective ability to inhibit the JAK kinases (TYK2, JAK1, JAK2, JAK3). The human JAK inhibitory activity was determined by using a microfluidic assay to monitor phosphorylation of a synthetic peptide by the recombinant human kinase domain of each of the four members of the JAK family, JAK1, JAK2, JAK3 and TYK2. […] Reactions were terminated by the addition of stop buffer containing EDTA. Utilizing the LabChip 3000 mobility shift technology (Caliper Life Science), each assay reaction was sampled to determine the level of phosphorylation. This technology is separation-based, allowing direct detection of fluorescently labeled substrates and products. Separations are controlled by a combination of vacuum pressure and electric field strength optimized for each peptide substrate. […] Compounds were added to a 384-well plate. […] Enzyme concentrations and incubation times were optimized for each new enzyme preps and were modified slightly over time to ensure 20% to 30% phosphorylation. […] The assay plates were placed on a Caliper Life Science LC3000 instrument, and each well was sampled using appropriate separation conditions to measure the unphosphorylated and phosphorylated peptide. The data was collected using the HTS Well Analyzer software from Caliper Life Sciences. […] The percent effect at each compound concentration was calculated based on the positive and negative control well contained within each assay plate (Equation 2). […] The percent effect was plotted against the compound concentration compound. […] Where max is the maximum asymptote (complete inhibition), min is the minimum asymptote (no inhibition) and s is the slope factor.
# Sequence of JAK3 (P52333 822-1111): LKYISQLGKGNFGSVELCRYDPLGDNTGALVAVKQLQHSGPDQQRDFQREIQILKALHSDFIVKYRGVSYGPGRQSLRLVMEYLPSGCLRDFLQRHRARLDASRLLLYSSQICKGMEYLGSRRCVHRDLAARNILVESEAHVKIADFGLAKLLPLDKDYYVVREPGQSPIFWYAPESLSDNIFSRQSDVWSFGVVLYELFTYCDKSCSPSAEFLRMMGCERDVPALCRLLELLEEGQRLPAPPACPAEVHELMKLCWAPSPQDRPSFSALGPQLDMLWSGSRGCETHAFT
# Sequence of JAK1 (P23458 875-1153): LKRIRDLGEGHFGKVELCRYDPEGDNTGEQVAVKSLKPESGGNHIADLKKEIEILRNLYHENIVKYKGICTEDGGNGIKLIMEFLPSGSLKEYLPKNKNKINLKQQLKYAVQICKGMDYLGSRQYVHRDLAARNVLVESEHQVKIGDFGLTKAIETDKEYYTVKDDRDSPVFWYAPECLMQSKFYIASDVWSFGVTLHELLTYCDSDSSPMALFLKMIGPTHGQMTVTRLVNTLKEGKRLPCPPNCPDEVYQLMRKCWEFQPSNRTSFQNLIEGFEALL
# Sequence of TYK2 (P29597 897-1176): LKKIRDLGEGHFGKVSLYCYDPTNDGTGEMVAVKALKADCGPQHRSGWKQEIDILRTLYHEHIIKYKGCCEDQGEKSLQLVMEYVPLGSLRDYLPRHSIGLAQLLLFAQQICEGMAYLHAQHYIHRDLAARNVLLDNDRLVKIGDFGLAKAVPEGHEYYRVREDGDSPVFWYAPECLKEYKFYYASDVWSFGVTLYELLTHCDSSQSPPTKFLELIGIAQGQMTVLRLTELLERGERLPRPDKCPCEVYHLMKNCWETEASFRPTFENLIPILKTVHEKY
# Sequence of JAK2 (O60674 849-1124): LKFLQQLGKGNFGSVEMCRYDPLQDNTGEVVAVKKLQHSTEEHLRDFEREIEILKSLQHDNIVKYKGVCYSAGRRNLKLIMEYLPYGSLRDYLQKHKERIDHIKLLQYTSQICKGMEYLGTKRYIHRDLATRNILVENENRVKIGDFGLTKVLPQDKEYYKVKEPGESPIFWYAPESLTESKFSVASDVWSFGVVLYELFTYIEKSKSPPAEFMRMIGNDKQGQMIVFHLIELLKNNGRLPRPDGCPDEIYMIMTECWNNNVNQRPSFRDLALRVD
SMILES,IC50 (TYK2) [nM],IC50 (JAK2) [nM],IC50 (JAK3) [nM],IC50 (JAK1) [nM]
"Cc1cc(-c2cn3nccc3c(-c3cnn([C@]4(CC#N)C[C@@H](C#N)C4)c3)n2)n[nH]1 [Example 26, (1r,3r)-3-(Cyanomethyl)-3-(4-(6-(5-methyl-1H-pyrazol-3-yl)pyrazolo[1,5-a]pyrazin-4-yl)-1H-pyrazol-1-yl)cyclobutane-1-carbonitrile]",21,158,> 10000,713
"CNC(=O)c1cc(-c2cn3nccc3c(-c3cnn([C@]4(CC#N)C[C@@H](OC)C4)c3)n2)[nH]n1 [Example 6, 5-(4-(1-((1r,3s)-1-(Cyanomethyl)-3-methoxycyclobutyl)-1H-pyrazol-4-yl)pyrazolo[1,5-a]pyrazin-6-yl)-N-methyl-1H-pyrazole-3-carboxamide]",–,500,> 10000,–
"N#CCC1(n2cc(-c3nc(-c4cc(CO)[nH]n4)cn4nccc34)cn2)CN(CC2CC2)C1 [Example 2, 2-(1-(Cyclopropylmethyl)-3-(4-(6-(5-(hydroxymethyl)-1H-pyrazol-3-yl)pyrazolo[1,5-a]pyrazin-4-yl)-1H-pyrazol-1-yl)azetidin-3-yl)acetonitrile]",62,299,> 10000,1060
"Cn1cc(-c2cn3nccc3c(-c3cnn([C@]4(CC#N)C[C@@H](C#N)C4)c3)n2)c(=O)[nH]1 [Example 37, (1r,3r)-3-(Cyanomethyl)-3-(4-(6-(1-methyl-3-oxo-2,3-dihydro-1H-pyrazol-4-yl)pyrazolo[1,5-a]pyrazin-4-yl)-1H-pyrazol-1-yl)cyclobutane-1-carbonitrile]",32,166,> 10000,3490
"Cn1cc(-c2cn3nccc3c(-c3cnn([C@]4(CC#N)C[C@@H](O)C4)c3)n2)cn1 [Example 14, 2-((1r,3s)-3-Hydroxy-1-(4-(6-(1-methyl-1H-pyrazol-4-yl)pyrazolo[1,5-a]pyrazin-4-yl)-1H-pyrazol-1-yl)cyclobutyl)acetonitrile]",81,–,> 10000,1060
"CO[C@H]1C[C@](CC#N)(n2cc(-c3nc(-c4cc(CO)[nH]n4)cn4nccc34)cn2)C1 [Example 28, 2-((1r,3s)-1-(4-(6-(5-(Hydroxymethyl)-1H-pyrazol-3-yl)pyrazolo[1,5-a]pyrazin-4-yl)-1H-pyrazol-1-yl)-3-methoxycyclobutyl)acetonitrile]",27,249,> 10000,1360
"Cn1cc(-c2cn3nccc3c(-c3cnn([C@]4(CC#N)C[C@@](C)(C#N)C4)c3)n2)cn1 [Example 35, (1r,3r)-3-(Cyanomethyl)-1-methyl-3-(4-(6-(1-methyl-1H-pyrazol-4-yl)pyrazolo[1,5-a]pyrazin-4-yl)-1H-pyrazol-1-yl)cyclobutane-1-carbonitrile]",136,268,> 10000,1920
"CCC(=O)N1CC(CC#N)(n2cc(-c3nc(-c4cnn(C)c4)cn4nccc34)cn2)C1 [Example 10, 2-(3-(4-(6-(1-Methyl-1H-pyrazol-4-yl)pyrazolo[1,5-a]pyrazin-4-yl)-1H-pyrazol-1-yl)-1-propionylazetidin-3-yl)acetonitrile]",580,1600,> 10000,5710
"Cn1cc(-c2cn3nccc3c(-c3cnn([C@]4(CC#N)C[C@@H](C#N)C4)c3)n2)nn1 [Example 33, (1r,3r)-3-(Cyanomethyl)-3-(4-(6-(1-methyl-1H-1,2,3-triazol-4-yl)pyrazolo[1,5-a]pyrazin-4-yl)-1H-pyrazol-1-yl)cyclobutane-1-carbonitrile]",52,444,> 10000,8720
"CO[C@H]1C[C@](CC#N)(n2cc(-c3nc(-c4cc(N)n(C)n4)cn4nccc34)cn2)C1 [Example 24, 2-((1r,3s)-1-(4-(6-(5-Amino-1-methyl-1H-pyrazol-3-yl)pyrazolo[1,5-a]pyrazin-4-yl)-1H-pyrazol-1-yl)-3-methoxycyclobutyl)acetonitrile]",25,432,> 10000,3550
"Cn1cc(-c2cn3nccc3c(-c3cnn([C@]4(CC#N)C[C@@H](C#N)C4)c3)n2)c(CO)n1 [Example 22, (1r,3r)-3-(Cyanomethyl)-3-(4-(6-(3-(hydroxymethyl)-1-methyl-1H-pyrazol-4-yl)pyrazolo[1,5-a]pyrazin-4-yl)-1H-pyrazol-1-yl)cyclobutane-1-carbonitrile]",30,127,> 10000,2540
"CO[C@H]1C[C@](CC#N)(n2cc(-c3nc(-c4cn(C)nc4CO)cn4nccc34)cn2)C1 [Example 31, 2-((1r,3s)-1-(4-(6-(3-(Hydroxymethyl)-1-methyl-1H-pyrazol-4-yl)pyrazolo[1,5-a]pyrazin-4-yl)-1H-pyrazol-1-yl)-3-methoxycyclobutyl)acetonitrile]",38,324,> 10000,> 9860
"CCN1CC(CC#N)(n2cc(-c3nc(-c4cc(CO)[nH]n4)cn4nccc34)cn2)C1 [Example 3, 2-(1-Ethyl-3-(4-(6-(5-(hydroxymethyl)-1H-pyrazol-3-yl)pyrazolo[1,5-a]pyrazin-4-yl)-1H-pyrazol-1-yl)azetidin-3-yl)acetonitrile]",64,–,–,2290
"CO[C@H]1C[C@](CC#N)(n2cc(-c3nc(-c4cnn(C)c4)cn4nccc34)cn2)C1 [Example 15, 2-((1r,3s)-3-Methoxy-1-(4-(6-(1-methyl-1H-pyrazol-4-yl)pyrazolo[1,5-a]pyrazin-4-yl)-1H-pyrazol-1-yl)cyclobutyl)acetonitrile]",–,228,> 9120,1500
"CO[C@H]1C[C@@](CC#N)(n2cc(-c3nc(-c4cnn(C)c4)cn4nccc34)cn2)C1 [Example 16, 2-((1s,3r)-3-Methoxy-1-(4-(6-(1-methyl-1H-pyrazol-4-yl)pyrazolo[1,5-a]pyrazin-4-yl)-1H-pyrazol-1-yl)cyclobutyl)acetonitrile]",–,99,10000,664
"Cn1cc(-c2cn3nccc3c(-c3cnn(C4(CC#N)CN(S(C)(=O)=O)C4)c3)n2)cn1 [Example 8, 2-(3-(4-(6-(1-Methyl-1H-pyrazol-4-yl)pyrazolo[1,5-a]pyrazin-4-yl)-1H-pyrazol-1-yl)-1-(methylsulfonyl)azetidin-3-yl)acetonitrile]",11,–,> 9280,265
"CO[C@H]1C[C@](CC#N)(n2cc(-c3nc(-c4cc(NC(C)=O)[nH]n4)cn4nccc34)cn2)C1 [Example 5, N-(3-(4-(1-((1r,3s)-1-(Cyanomethyl)-3-methoxycyclobutyl)-1H-pyrazol-4-yl)pyrazolo[1,5-a]pyrazin-6-yl)-1H-pyrazol-5-yl)acetamide]",35,–,> 10000,1920
"Cn1cc(-c2cn3nccc3c(-c3cnn([C@]4(CC#N)C[C@H](O)C4)c3)n2)cn1 [Example 13, 2-((1s,3r)-3-Hydroxy-1-(4-(6-(1-methyl-1H-pyrazol-4-yl)pyrazolo[1,5-a]pyrazin-4-yl)-1H-pyrazol-1-yl)cyclobutyl)acetonitrile]",149,–,> 10000,3230
